Laboratory results as given in the CheMixHub viscosity set.

Test: xn = mol fraction of the nth substance listed

COCCOCCOCCO + CCOC(C)(C)C
viscosity [mPa·s], 101 kPa
Conditions	293.15 K	298.15 K	303.15 K
x2 = 0.0504	6.269	5.479	4.777
x2 = 0.1	5.458	4.8	4.209
x2 = 0.1509	4.734	4.186	3.689
x2 = 0.2025	4.101	3.643	3.225
x2 = 0.2489	3.607	3.216	2.859
x2 = 0.3007	3.129	2.801	2.501
x2 = 0.3511	2.729	2.453	2.199
x2 = 0.3999	2.394	2.159	1.944
x2 = 0.4508	2.091	1.893	1.712
x2 = 0.5001	1.837	1.669	1.516
x2 = 0.5493	1.616	1.475	1.345
x2 = 0.6	1.418	1.3	1.192
x2 = 0.6503	1.248	1.149	1.058
x2 = 0.6998	1.102	1.019	0.943
x2 = 0.7491	0.974	0.906	0.842
x2 = 0.7999	0.86	0.803	0.751
x2 = 0.8509	0.759	0.712	0.669
x2 = 0.9001	0.674	0.635	0.6
x2 = 0.9498	0.599	0.566	0.536

CNC + CS(C)=O
303.15 K, 101 kPa
Conditions	viscosity [mPa·s]
x2 = 0.061	2.067
x2 = 0.1207	2.133
x2 = 0.2361	2.207
x2 = 0.4518	2.373
x2 = 0.6496	2.207
x2 = 0.8318	1.939

COCCOCCOCCO + O
101.33 kPa
Conditions	viscosity [mPa·s]
298.15 K, x1 = 0.0497	2.531
298.15 K, x1 = 0.0989	4.964
298.15 K, x1 = 0.1415	6.443
298.15 K, x1 = 0.2035	7.869
298.15 K, x1 = 0.3069	8.456
298.15 K, x1 = 0.4204	7.901
298.15 K, x1 = 0.5037	7.472
298.15 K, x1 = 0.6109	6.897
298.15 K, x1 = 0.7651	6.754
298.15 K, x1 = 0.84	6.754
298.15 K, x1 = 0.8917	6.594
308.15 K, x1 = 0.0226	1.317
308.15 K, x1 = 0.0554	2.514
308.15 K, x1 = 0.0964	3.669
308.15 K, x1 = 0.1278	4.537
308.15 K, x1 = 0.1726	5.437
308.15 K, x1 = 0.2157	5.977
308.15 K, x1 = 0.2434	6.176
308.15 K, x1 = 0.302	6.38
308.15 K, x1 = 0.3364	6.428
308.15 K, x1 = 0.3687	6.422
308.15 K, x1 = 0.3952	6.376
308.15 K, x1 = 0.42	6.331
308.15 K, x1 = 0.4712	6.215
308.15 K, x1 = 0.5057	6.123
308.15 K, x1 = 0.5471	6.022
308.15 K, x1 = 0.6208	5.83
308.15 K, x1 = 0.6681	5.716
308.15 K, x1 = 0.6996	5.651
308.15 K, x1 = 0.775	5.463
308.15 K, x1 = 0.8279	5.355
308.15 K, x1 = 0.8744	5.266
308.15 K, x1 = 0.9499	5.134
313.15 K, x1 = 0.0497	1.632
313.15 K, x1 = 0.0989	2.994
313.15 K, x1 = 0.1415	3.785
313.15 K, x1 = 0.2035	4.556
313.15 K, x1 = 0.3069	4.963
313.15 K, x1 = 0.4204	4.933
313.15 K, x1 = 0.5037	4.812
313.15 K, x1 = 0.6109	4.728
313.15 K, x1 = 0.7651	4.394
313.15 K, x1 = 0.84	4.295
313.15 K, x1 = 0.8917	4.236
323.15 K, x1 = 0.0497	1.3
323.15 K, x1 = 0.0989	2.266
323.15 K, x1 = 0.1415	2.812
323.15 K, x1 = 0.2035	3.375
323.15 K, x1 = 0.3069	3.689
323.15 K, x1 = 0.4204	3.709
323.15 K, x1 = 0.5037	3.647
323.15 K, x1 = 0.6109	3.566
323.15 K, x1 = 0.7651	3.428
323.15 K, x1 = 0.84	3.352
323.15 K, x1 = 0.8917	3.307

CCNCC + CCCCCCCO
viscosity [mPa·s], 100 kPa
Conditions	x1 = 0.0806	x1 = 0.1606	x1 = 0.2415	x1 = 0.3492	x1 = 0.4394	x1 = 0.5613	x1 = 0.6506	x1 = 0.7401	x1 = 0.8503	x1 = 0.9414
293.15 K	6.26	5.55	4.87	4.03	3.37	2.55	2.02	1.52	0.947	0.532
303.15 K	4.47	3.94	3.45	2.83	2.36	1.78	1.4	1.07	0.7	0.43
313.15 K	3.3	2.91	2.53	2.07	1.72	1.3	1.03	0.79	0.52	0.35
323.15 K	2.47	2.17	1.89	1.54	1.28	0.97	0.78	0.6	0.42	0.3

ClCc1ccccc1 + COCCOC
298.15 K, 101 kPa
Conditions	viscosity [mPa·s]
x2 = 0.135	1.176
x2 = 0.2599	1.026
x2 = 0.3758	0.908
x2 = 0.4836	0.807
x2 = 0.5841	0.716
x2 = 0.6781	0.635
x2 = 0.7662	0.564
x2 = 0.8489	0.506
x2 = 0.9267	0.453

CCCCOC(=O)c1ccccc1 + CCCCCCCCCCCC
101 kPa
Conditions	viscosity [mPa·s]
298.15 K, x2 = 0.0369	2.578
298.15 K, x2 = 0.0748	2.463
298.15 K, x2 = 0.1143	2.347
298.15 K, x2 = 0.1505	2.251
298.15 K, x2 = 0.1939	2.149
298.15 K, x2 = 0.2329	2.064
298.15 K, x2 = 0.2775	1.977
298.15 K, x2 = 0.3263	1.893
298.15 K, x2 = 0.3672	1.834
298.15 K, x2 = 0.4144	1.759
298.15 K, x2 = 0.4576	1.702
298.15 K, x2 = 0.5085	1.649
298.15 K, x2 = 0.5525	1.594
298.15 K, x2 = 0.6026	1.549
298.15 K, x2 = 0.6499	1.506
298.15 K, x2 = 0.7176	1.457
298.15 K, x2 = 0.7662	1.428
298.15 K, x2 = 0.8184	1.399
298.15 K, x2 = 0.8852	1.372
308.15 K, x2 = 0.0565	2.041
308.15 K, x2 = 0.0869	1.968
308.15 K, x2 = 0.1399	1.857
308.15 K, x2 = 0.1662	1.807
308.15 K, x2 = 0.2145	1.722
308.15 K, x2 = 0.2546	1.662
308.15 K, x2 = 0.3019	1.596
308.15 K, x2 = 0.3408	1.548
308.15 K, x2 = 0.3915	1.49
308.15 K, x2 = 0.4297	1.451
308.15 K, x2 = 0.4845	1.4
308.15 K, x2 = 0.5231	1.367
308.15 K, x2 = 0.5719	1.328
308.15 K, x2 = 0.6276	1.287
308.15 K, x2 = 0.68	1.256
308.15 K, x2 = 0.7278	1.229
308.15 K, x2 = 0.7842	1.202
308.15 K, x2 = 0.8501	1.176
308.15 K, x2 = 0.9392	1.151
318.15 K, x2 = 0.0245	1.764
318.15 K, x2 = 0.0618	1.688
318.15 K, x2 = 0.101	1.612
318.15 K, x2 = 0.1422	1.543
318.15 K, x2 = 0.181	1.487
318.15 K, x2 = 0.2247	1.427
318.15 K, x2 = 0.2652	1.376
318.15 K, x2 = 0.3117	1.325
318.15 K, x2 = 0.355	1.282
318.15 K, x2 = 0.4033	1.238
318.15 K, x2 = 0.4479	1.202
318.15 K, x2 = 0.5006	1.163
318.15 K, x2 = 0.5557	1.127
318.15 K, x2 = 0.604	1.099
318.15 K, x2 = 0.6185	1.091
318.15 K, x2 = 0.7124	1.045
318.15 K, x2 = 0.7679	1.024
318.15 K, x2 = 0.8278	1.006
318.15 K, x2 = 0.9612	0.974
